According to US10274488B2, “Glycan arrays on PTFE-like aluminum coated glass slides and related methods” (Academia Sinica, priority 2008, dated 2019):

How the values were obtained:
[1] = test system: cellulase from T. viride; experiment: Enzymatic hydrolysis in solution with cellulase from T. viride, MS-TOF readout; format: biochemical, Trichoderma viride; conditions: reaction in solution, pH 5
Method: (§1) Enzymatic hydrolysis of the immobilized poly-fluorinated cellobiose 8 (see FIG. 14) was first conducted in situ on the phosphonic acid slide surface. Three commercially available cellulases, Aspergillus niger (A. niger), Trichoderma reesei (T. reesei), and Trichoderma viride (T. viride) were prepared separately at 5 U/mL in a sodium acetate (25 mM) buffer solution (pH 5) and loaded onto the functionalized slide which has been divided into 16 wells using Fast Frame reaction chambers. For comparison, an aliquot of enzyme solution (100 μL) was added to the solution of fluorinated cellobiose (100 μL of 0.5 mM) in eppendorfs to carry out the enzymatic hydrolysis reactions in solution. After the reaction, it was transferred to the empty wells of the same slide. Each well was rinsed separately three times with de-ionized water and the slide was dried again under high vacuum before subjecting to MS-TOF analysis.
(§2) Under MS-TOF analysis, the clean background baseline allowed calculation of the percentage of hydrolyzed components for each sample. As shown in the MS-TOF results in FIG. 20, percentages of hydrolyzed products are calculated from the peak intensities of each spectrum. According to implementations of experimental data shown in FIG. 20, MS-TOF data of enzymatic hydrolysis of poly-fluorinated cellobiose in solution in FIG. 20A and immobilized on PTFE-like ACG slide in FIG. 20B. The control are the same experimental conditions run without enzymes in (a); (b), (c), and (d) are experimental conditions with the cellulase proteins from A. niger (b), T. reesei (c), and T. viride (d).
Cellulase was prepared (5 U/mL in 25 mM pH 5.05 NaOAc buffer solution). Substrate was also dissolved in NaOAc buffer solution (25 mM, pH 5.05) to give 0.5 mM substrate solution. Add 100 uL cellulase solution to 100 uL substrate solution in eppendorf to have a 2.5 U/mL cellulase solution with 0.25 mM substrate. This solution was incubated in 37° C. for 18 hours. Add 100 μL incubated solution onto the slide loaded in FAST® Frame. Put the slide in dry box to remove the water, and then use high vacuum to remove trace water. 100 μL water was used to rinse each well of the FAST® Frame multi-slide plate to solve and remove the salt of the buffer solution. Remove any residual water on the plate by high vacuum and then analyzed the slide by MALDI-TOF Ultra-Flex II.

[2] = test system: cellulase from T. reesei; experiment: Enzymatic hydrolysis on the PTFE-like ACG slide with cellulase from T. reesei, MS-TOF readout; format: biochemical, Trichoderma reesei; conditions: reaction on the ACG slide, pH 5
Method: as §1, §2
(§3) Cellulase was prepared (5 U/mL in 25 mM pH 5.05 NaOAc buffer solution). Substrate was also dissolved in NaOAc buffer solution (25 mM, pH 5.05) to give 0.5 mM substrate solution. Add 50 μL cellulase solution to 50 μL substrate solution onto the glass slide which was loaded in FAST® Frame multi-slide plate to have a 2.5 U/mL cellulase solution with 0.25 mM substrate. The well of the plate was sealed and the whole assembly was incubated in 37° C. for 18 hours. Put the slide in dry box to remove the water, and then use high vacuum to remove trace water. 100 uL water was used to rinse each well of the FAST® Frame multi-slide plate to solve and remove the salt of the buffer solution. Remove any residual water on the plate by high vacuum and then analyzed the slide by MALDI-TOF Ultra-Flex II.

[3] = test system: cellulase from A. niger; experiment: Enzymatic hydrolysis on the PTFE-like ACG slide with cellulase from A. niger, MS-TOF readout; format: biochemical, Aspergillus niger; conditions: reaction on the ACG slide
Method: as §1, §2, §3

[4] = test system: cellulase from T. viride; experiment: Enzymatic hydrolysis on the PTFE-like ACG slide with cellulase from T. viride, MS-TOF readout; format: biochemical, Trichoderma viride; conditions: reaction on the ACG slide, pH 5
Method: as §1, §2, §3

Biose (un-hydrolyzed cellobiose), percentage of hydrolyzed pattern [1]: 3%
F-tail, percentage of hydrolyzed pattern [1]: 38%
Glucose, percentage of hydrolyzed pattern [1]: 58%
Triose, percentage of hydrolyzed pattern [1]: 0/0%
Biose (un-hydrolyzed cellobiose), percentage of hydrolyzed pattern [2]: 69%
F-tail, percentage of hydrolyzed pattern [2]: 7%
Glucose, percentage of hydrolyzed pattern [2]: 25%
Triose, percentage of hydrolyzed pattern [2]: 0/0%
Biose (un-hydrolyzed cellobiose), percentage of hydrolyzed pattern ([3]; pH 5): 1%
F-tail, percentage of hydrolyzed pattern ([3]; pH 5): 0/0%
Glucose, percentage of hydrolyzed pattern ([3]; pH 5): 0%
Triose, percentage of hydrolyzed pattern ([3]; pH 5): 0%
Biose (un-hydrolyzed cellobiose), percentage of hydrolyzed pattern ([3]; pH 5, listed as cellobiose): 100%
Biose (un-hydrolyzed cellobiose), percentage of hydrolyzed pattern [4]: 77%
F-tail, percentage of hydrolyzed pattern [4]: 6%
Glucose, percentage of hydrolyzed pattern [4]: 17%
Triose, percentage of hydrolyzed pattern [4]: 0/0%
Compound: O=C(NCCCCCO[C@@H]1O[C@H](CO)[C@@H](O[C@@H]2O[C@H](CO)[C@@H](O)[C@H](O)[C@H]2O)[C@H](O)[C@H]1O)OCCCC(F)(F)C(F)(F)C(F)(F)C(F)(F)C(F)(F)C(F)(F)C(F)(F)C(F)(F)F [Compound 8, [(4,4,5,5,6,6,7,7,8,8,9,9,10,10,11,11,12,12,12-nonadecafluorododecoxycarbonyl-amino)pentyl] ß-D-cellobioside]
